Data as given in ChEMBL document CHEMBL1201862, “PubChem BioAssay data set” (2004).
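Five compound concentrations were applied to cells in 96-well plates for 48 hours; endpoints were derived by simple linear interpolation of the resulting dose-response curve. GI50 = concentration required for 50% inhibition of growth.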 The source made the active and inactive calls. Cut-off read from the data, not from the text of the source: active = GI50 up to about 1.1 µM and inactive = higher.

Columns and labels:
Test in all cases: NCI tumour cell line growth inhibition, 48 h
[1] = test system: UACC-257
[2] = test system: KM12
[3] = test system: NCI-H522
[4] = test system: MCF7
[5] = test system: HOP-92
[6] = test system: NCI/ADR-RES
[7] = test system: A498
[8] = test system: A549
[9] = test system: SK-OV-3
[10] = test system: LOX IMVI
[11] = test system: OVCAR-3
[12] = test system: HOP-62
[13] = test system: OVCAR-8
[14] = test system: MDA-N
[15] = test system: COLO 205
[16] = test system: MOLT-4
[17] = test system: OVCAR-4
[18] = test system: TK-10
[19] = test system: Hs-578T
[20] = test system: SF-268
[21] = test system: 786-0
[22] = test system: T47D
[23] = test system: UO-31
[24] = test system: SK-MEL-5
[25] = test system: RPMI-8226
[26] = test system: SF-539
[27] = test system: M14
[28] = test system: SN12C
[29] = test system: SW-620
[30] = test system: DU-145
[31] = test system: SNB-75
[32] = test system: HCT-15
[33] = test system: UACC-62
[34] = test system: RXF 393
[35] = test system: CAKI-1
[36] = test system: SR
[37] = test system: HCT-116
[38] = test system: NCI-H226
[39] = test system: SF-295
[40] = test system: ACHN
[41] = test system: MDA-MB-435
[42] = test system: CCRF-CEM
[43] = test system: NCI-H23
[44] = test system: EKVX
[45] = test system: HT-29
[46] = test system: NCI-H460
[47] = test system: OVCAR-5
[48] = test system: HCC 2998
[49] = test system: HL-60
[50] = test system: K562
[51] = test system: Malme-3M
[52] = test system: U-251
[53] = test system: SNB-19
[54] = test system: PC-3
[55] = test system: SK-MEL-2
[56] = test system: MDA-MB-231
[57] = test system: SK-MEL-28
[58] = test system: IGROV-1

Measured: GI50

CCCCCCCCCN1CCC(=O)C(C(=O)OC)C1 (stereo not given)
13.4 µM: [32]
inactive: [1] 11 µM | [2] 3.08 µM | [3] 8.73 µM | [4] 12.3 µM | [5] 17.7 µM | [6] 13.6 µM | [7] 19 µM | [8] 16.6 µM | [9] 16.4 µM | [10] 12.5 µM | [11] 15.5 µM | [12] 16.9 µM | [13] 8.07 µM | [14] 16 µM | [15] 15.1 µM | [16] 13.6 µM | [17] 2.29 µM | [18] 16.7 µM | [19] 17.1 µM | [20] 16.3 µM | [21] 16.9 µM | [22] 10.4 µM | [23] 10.3 µM | [24] 14.2 µM | [25] 15.6 µM | [26] 18.2 µM | [27] 15.4 µM | [28] 16 µM | [29] 11.9 µM | [30] 15.1 µM | [31] 17.9 µM | [33] 12.2 µM | [34] 17.1 µM | [35] 15.6 µM | [36] 3.86 µM | [37] 13.9 µM | [38] 12.9 µM | [39] 17.3 µM | [40] 8.93 µM | [41] 14.7 µM | [42] 10.1 µM | [43] 2.96 µM | [44] 15.5 µM | [45] 10.1 µM | [46] 17.6 µM | [47] 15.3 µM | [48] 19.5 µM | [49] 1.53 µM

O=C1CCc2cc3c(cc21)CC1(Cc2ccccc2C1)C3
inactive: [1] 19.6 µM | [2] > 22.4 µM | [3] 9.14 µM | [4] 9.29 µM | [5] 6.32 µM | [6] 7.31 µM | [7] 12.2 µM | [50] 2.09 µM | [8] 12 µM | [9] 14 µM | [10] 8.02 µM | [11] 8.75 µM | [12] 9.73 µM | [13] 24.9 µM | [14] 2.16 µM | [15] 3.79 µM | [17] 50.1 µM | [18] 30.3 µM | [19] 52.1 µM | [20] 37.8 µM | [21] 36.3 µM | [22] 20.2 µM | [51] 16.8 µM | [23] 4.02 µM | [24] 5.77 µM | [25] 6.27 µM | [26] 9.12 µM | [52] 7.96 µM | [27] 14.9 µM | [28] 19.9 µM | [29] 4.34 µM | [30] 20.8 µM | [31] 15.7 µM | [33] 21.1 µM | [34] 33 µM | [53] 27.2 µM | [36] 1.86 µM | [37] 4.08 µM | [38] 12.9 µM | [39] 6.43 µM | [54] 14.2 µM | [40] 19.8 µM | [41] 2.58 µM | [55] 2.11 µM | [42] 2.98 µM | [43] 26.9 µM | [44] > 27.3 µM | [56] 12 µM | [45] 3.14 µM | [57] 10.3 µM | [46] 6.31 µM | [47] 16.3 µM | [48] 8.75 µM | [58] 4.3 µM | [49] 2.43 µM
active: [16] 0.678 µM | [35] 0.703 µM
13.8 µM: [32]

FC(F)(F)c1cccc(-c2nc3ccccc3c3c2[C@@]2(N4CCCC4)CCCC[C@@H]32)c1
inactive: [1] 44.9 µM | [2] 35.6 µM | [3] 13.3 µM | [4] 20 µM | [5] 13.2 µM | [6] > 100 µM | [7] 31.2 µM | [50] 30.8 µM | [8] 31.7 µM | [9] 36.9 µM | [10] 18.1 µM | [11] 38.9 µM | [12] 32.3 µM | [14] 32.2 µM | [15] 15.5 µM | [16] 28.1 µM | [17] 35.3 µM | [18] 30.3 µM | [19] 43.6 µM | [20] 33.3 µM | [21] 38.4 µM | [22] 76 µM | [51] 32.9 µM | [23] 18 µM | [24] 15.8 µM | [25] 17.5 µM | [26] 37.1 µM | [52] 23.1 µM | [27] 66.2 µM | [28] 40.4 µM | [29] 36.2 µM | [30] 51.5 µM | [31] 30.1 µM | [33] 23.5 µM | [34] 38.1 µM | [53] 50.9 µM | [35] 50.9 µM | [36] 40.9 µM | [37] 35.6 µM | [38] 51.2 µM | [39] 26.2 µM | [54] 37 µM | [41] 23.6 µM | [55] 17.8 µM | [42] 29.6 µM | [43] 32.4 µM | [44] 28.7 µM | [56] 18.5 µM | [45] 29.1 µM | [46] 28.1 µM | [47] 34.4 µM | [58] 12 µM | [49] 25.8 µM
